Values quoted from earlier work in publication PMC12525602, “Identification of Selective α-Glucosidase Inhibitors via Virtual Screening with Machine Learning” (Molecules, 2025).

tested on: α-glucosidase; conditions: Table S5 modeling dataset; activity label 1 = active, 0 = inactive; cited from earlier work

| Compound | activity |
| --- | --- |
| O=C(O)C1(O)C[C@@H](O)C(O)[C@H](O)C1 (stereo partly drawn) [compound 91] | 0 |
| CC1CCCN(c2ccc(/C=N/Nc3nc(-c4ccc(O)c(O)c4)cs3)cc2)C1 (stereo not drawn) [compound 93] | 0 |
| O=C(NNS(=O)(=O)c1ccc(OC(F)(F)F)cc1)c1cc2cc(F)ccc2[nH]1 [compound 94] | 0 |
| O=C(c1ccccc1)c1ccc2nc(-c3ccc(F)cc3)[nH]c2c1 [compound 95] | 0 |
| N#Cc1c(-c2ccc(Cl)cc2)cc(-c2cccnc2)c(C#N)c1N [compound 97] | 0 |
| CCCCCCCC/C=C\CCCCCCCCCC(=O)O [compound 98] | 0 |
| Brc1cccc(CSc2nnc(COc3cccc4cccnc34)o2)c1 [compound 99] | 0 |
| COc1cccc(C(=O)C2C(O)c3ccccc3S(=O)(=O)N2CC(=O)Nc2ccc([N+](=O)[O-])cc2)c1 (stereo not drawn) [compound 101] | 0 |
| COc1ccccc1Nc1nnc(-c2cc3cc(C#N)ccc3[nH]2)s1 [compound 102] | 0 |
| N#Cc1c(-c2ccc(Cl)cc2)cc(-c2ccc([N+](=O)[O-])cc2)c(C#N)c1N [compound 103] | 0 |
| O=c1c(O[C@@H]2OC[C@H](O)[C@H](O)[C@H]2O)c(-c2ccc(O)c(O)c2)oc2cc(O)cc(O)c12 [compound 104] | 0 |
| COc1ccc(S(=O)(=O)NNC(=O)c2cc3cc(F)ccc3[nH]2)cc1 [compound 105] | 0 |
| CC1CCCN(c2ccc(/C=N/Nc3nc(-c4ccc(C#N)cc4)cs3)cc2)C1 (stereo not drawn) [compound 106] | 0 |
| Brc1ccc(CSc2nnc(COc3cccc4cccnc34)o2)cc1 [compound 107] | 0 |
| Fc1ccc(CSc2nnc(COc3cccc4cccnc34)o2)c(F)c1 [compound 108] | 0 |
| O=C(NNS(=O)(=O)c1ccc([N+](=O)[O-])cc1)c1cc2cc(F)ccc2[nH]1 [compound 109] | 0 |
| O=C(c1ccccc1)c1ccc2nc(-c3ccc(Cl)cc3Cl)[nH]c2c1 [compound 110] | 0 |
| Clc1ccc(CSc2nnc(COc3cccc4cccnc34)o2)c(Cl)c1 [compound 111] | 0 |
| CC1CCN(c2ccc(/C=N/Nc3nc(-c4ccccc4)cs3)cc2)CC1 [compound 112] | 0 |
| N#Cc1c(-c2ccncc2)cc(-c2ccc(Cl)cc2)c(C#N)c1N [compound 113] | 0 |
| O=C(c1ccccc1)c1ccc2nc(-c3ccc(Cl)cc3)[nH]c2c1 [compound 114] | 0 |

| Compound | activity |
| --- | --- |
| Fc1ccc(-n2cc(CSc3nnc(COc4cccc5cccnc45)o3)nn2)cc1 [compound 115] | 0 |
| c1ccc(CSc2nnc(COc3cccc4cccnc34)o2)cc1 [compound 116] | 0 |
| C[C@@H]1O[C@@H](Oc2c(-c3ccc(O)cc3)oc3cc(O)cc(O)c3c2=O)[C@H](O)[C@H](O)[C@H]1O [compound 117] | 0 |
| COc1cccc(C(=O)C2C(O)c3ccccc3S(=O)(=O)N2CC(=O)Nc2cccc(Br)c2)c1 (stereo not drawn) [compound 118] | 0 |
| CC1CCCN(c2ccc(/C=N/Nc3nc(-c4ccccc4)cs3)cc2)C1 (stereo not drawn) [compound 119] | 0 |
| N#Cc1c(-c2ccc(Cl)cc2)cc(-c2cccc([N+](=O)[O-])c2)c(C#N)c1N [compound 120] | 0 |
| Clc1ccc(CSc2nnc(COc3cccc4cccnc34)o2)cc1 [compound 121] | 0 |
| N#Cc1ccc(S(=O)(=O)NNC(=O)c2cc3cc(F)ccc3[nH]2)cc1 [compound 122] | 0 |
| CCCSc1nnc(COc2cccc3cccnc23)o1 [compound 123] | 0 |
| N#Cc1ccc2[nH]c(-c3nnc(Nc4cccc(F)c4)s3)cc2c1 [compound 124] | 0 |
| N#Cc1ccc2[nH]c(-c3nnc(Nc4ccccc4Cl)s3)cc2c1 [compound 125] | 0 |
| CC1(C)CC[C@]2(C(=O)O)CC[C@]3(C)C(=CC[C@@H]4[C@@]5(C)CC[C@H](O)C(C)(C)[C@@H]5CC[C@]43C)[C@@H]2C1 [compound 126] | 0 |
| COC(=O)/C=C/c1ccc(O)c(OC)c1 [compound 127] | 0 |
| Fc1ccc(CSc2nnc(COc3cccc4cccnc34)o2)cc1 [compound 128] | 0 |
| CCCCCC/C=C\CCCCCCCC(=O)O [compound 129] | 0 |
| CC(C)=CCC1(O)C(O)=C(C(=O)CC(C)C)C(=O)C1(O)C(=O)C=C(C)C (stereo not drawn) [compound 130] | 0 |
| N#Cc1c(-c2ccc(Cl)cc2)cc(-c2ccc(Cl)cc2)c(C#N)c1N [compound 131] | 0 |
| C[n+]1cccc(C(=O)[O-])c1 [compound 133] | 0 |
| O=C(c1ccccc1)c1ccc2nc(-c3ccc(O)cc3)[nH]c2c1 [compound 135] | 0 |
| O=C(NNS(=O)(=O)c1cccc(Cl)c1)c1cc2cc(F)ccc2[nH]1 [compound 136] | 0 |
| COc1cc(/C=C2\CC(=O)N(C(=O)CN3CCOCC3)C2=O)ccc1O [compound 137] | 0 |

same assay, conditions: activity label of the modeling dataset, Table S5 (1 = active, 0 = inactive); cited from earlier work

| Compound | activity |
| --- | --- |
| Cc1ccc(S(=O)(=O)NNC(=O)c2cc3cc(F)ccc3[nH]2)cc1 [compound 53] | 0 |
| c1ccc(Cn2cc(CSc3nnc(COc4cccc5cccnc45)o3)nn2)cc1 [compound 54] | 0 |
| CCCCCSc1nnc(COc2cccc3cccnc23)o1 [compound 55] | 0 |
| O=[N+]([O-])c1ccc(Cn2cc(CSc3nnc(COc4cccc5cccnc45)o3)nn2)cc1 [compound 56] | 0 |
| BrCCSc1nnc(COc2cccc3cccnc23)o1 [compound 57] | 0 |
| Cc1cccc(C)c1-n1cc(CSc2nnc(COc3cccc4cccnc34)o2)nn1 [compound 58] | 0 |
| Cc1ccc(-n2cc(CSc3nnc(COc4cccc5cccnc45)o3)nn2)cc1 [compound 59] | 0 |
| N#Cc1ccc2[nH]c(-c3nnc(Nc4ccc([N+](=O)[O-])cc4)s3)cc2c1 [compound 60] | 0 |
| Clc1ccc(Cn2cc(CSc3nnc(COc4cccc5cccnc45)o3)nn2)c(Cl)c1 [compound 61] | 0 |
| CCSc1nnc(COc2cccc3cccnc23)o1 [compound 63] | 0 |
| O=c1c(O[C@@H]2O[C@H](CO)[C@H](O)[C@H](O)[C@H]2O)c(-c2ccc(O)cc2)oc2cc(O)cc(O)c12 [compound 65] | 0 |
| CC(C)CCC(=O)C1(O)C(O)=C(C(=O)CC(C)C)C(=O)C1CCC(C)C (stereo not drawn) [compound 66] | 0 |
| CC1CCN(c2ccc(/C=N/Nc3nc(-c4ccc([N+](=O)[O-])cc4)cs3)cc2)CC1 [compound 67] | 0 |
| Cc1ccc(-c2csc(N/N=C/c3ccc(N4CCCC(C)C4)cc3)n2)cc1 (stereo not drawn) [compound 68] | 0 |
| Fc1ccc(Cn2cc(CSc3nnc(COc4cccc5cccnc45)o3)nn2)cc1 [compound 69] | 0 |
| CC1CCCN(c2ccc(/C=N/Nc3nc(-c4ccc(Br)cc4)cs3)cc2)C1 (stereo not drawn) [compound 70] | 0 |
| Clc1cccc(Cl)c1-n1cc(CSc2nnc(COc3cccc4cccnc34)o2)nn1 [compound 71] | 0 |
| O=[N+]([O-])c1ccc(-n2cc(CSc3nnc(COc4cccc5cccnc45)o3)nn2)cc1 [compound 72] | 0 |

| Compound | activity |
| --- | --- |
| Clc1ccc(Cn2cc(CSc3nnc(COc4cccc5cccnc45)o3)nn2)cc1 [compound 73] | 0 |
| N#Cc1c(-c2ccc([N+](=O)[O-])cc2)cc(-c2cccnc2)c(C#N)c1N [compound 75] | 0 |
| CC1OC(Oc2cc(-c3oc4cc(O)cc(O)c4c(=O)c3O)cc(O)c2O)C(O)C(O)C1O (stereo not drawn) [compound 76] | 0 |
| CCCCCCn1cc(CSc2nnc(COc3cccc4cccnc34)o2)nn1 [compound 77] | 0 |
| CC1CCCN(c2ccc(/C=N/Nc3nc(-c4ccc(F)cc4F)cs3)cc2)C1 (stereo not drawn) [compound 78] | 0 |
| CC1CCN(c2ccc(/C=N/Nc3nc(-c4ccc(O)c(O)c4)cs3)cc2)CC1 [compound 79] | 0 |
| Fc1ccc(CSc2nnc(COc3cccc4cccnc34)o2)cc1F [compound 80] | 0 |
| Brc1ccc(-n2cc(CSc3nnc(COc4cccc5cccnc45)o3)nn2)cc1 [compound 81] | 0 |
| CCCCCn1cc(CSc2nnc(COc3cccc4cccnc34)o2)nn1 [compound 82] | 0 |
| CC1CCN(c2ccc(/C=N/Nc3nc(-c4ccc(Cl)cc4)cs3)cc2)CC1 [compound 83] | 0 |
| CC1CCN(c2ccc(/C=N/Nc3nc(-c4ccc(F)cc4F)cs3)cc2)CC1 [compound 84] | 0 |
| C=CCSc1nnc(COc2cccc3cccnc23)o1 [compound 85] | 0 |
| CC(C)=CCSc1nnc(COc2cccc3cccnc23)o1 [compound 86] | 0 |
| CC1CCCN(c2ccc(/C=N/Nc3nc(-c4ccc(F)cc4)cs3)cc2)C1 (stereo not drawn) [compound 87] | 0 |
| CC(C)c1ccc(S(=O)(=O)NNC(=O)c2cc3cc(F)ccc3[nH]2)cc1 [compound 88] | 0 |
| O=[N+]([O-])c1ccc(CSc2nnc(COc3cccc4cccnc34)o2)cc1 [compound 89] | 0 |
| O=C(NNS(=O)(=O)c1cccc2ncccc12)c1cc2cc(F)ccc2[nH]1 [compound 90] | 0 |

same assay, conditions: activity label of the modeling dataset, Table S5; cited from earlier work

| Compound | activity |
| --- | --- |
| CC(C)=CCC1=C(O)[C@@](O)(CC=C(C)C)C(=O)C(C(=O)CC(C)C)=C1O [compound 138] | 0 |
| O=c1c(O[C@@H]2O[C@@H](CO)[C@H](O)[C@H]2O)c(-c2ccc(O)c(O)c2)oc2cc(O)cc(O)c12 [compound 139] | 0 |
| CC1CCCN(c2ccc(/C=N/Nc3nc(-c4ccc(O)cc4)cs3)cc2)C1 (stereo not drawn) [compound 140] | 0 |
| CCCCCCCCCCCCCC(=O)O [compound 141] | 0 |
| COc1cc(/C=N/N=C2\C(=O)Nc3ccccc32)ccc1OCc1cn(Cc2ccccc2C)nn1 [compound 142] | 0 |
| COc1cc(/C=N/N=C2\C(=O)Nc3ccccc32)ccc1OCc1cn(Cc2ccccc2F)nn1 [compound 143] | 0 |
| COc1cc(/C=N/N=C2\C(=O)Nc3ccccc32)ccc1OCc1cn(Cc2ccc(F)cc2)nn1 [compound 144] | 0 |
